Test results from US20260201008A1, “SECRETIN-DERIVED GLP1R SELECTIVE AGONISTS” (GUBRA A/S, priority 2023, published 2026).
Like-named read-outs stand apart in the source and are kept apart here. Numbered stars: 1 amine (or outer) side, 2 acyl side, 3 side chain; on linkers, the order of the positions; unused ones are H or OH. Square brackets hold non-standard residues; d marks the D form. Side chains are listed from the residue outwards. Peptide text beside a SMILES is read from it. * marks the point of attachment. C20 diacid = O=C(O)CCCCCCCCCCCCCCCCCCC(=O)*; γGlu = O=C(O)[C@H](CCC(=O)[*:2])N[*:1]; AEEA = NCCOCCOCC(=O)O; Aib = CC(C)(N)C(=O)O

Key:
[1] = Fibril formation of crude library peptides (Thioflavin T); type: physicochemical; set-up: key: average ThT fluorescence emission at 480 nm (ex 450 nm), raw units; details: Physical stability of peptides
Method in brief: (§1)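 Crude peptides at 267 μM in 50 mM sodium acetate pH 4.0 or 50 mM sodium phosphate pH 7.0, pre-incubated 1-2 h at room temperature, then 4 μM final ThT added. Turbidity read first as A600. ThT fluorescence (ex 450/em 480 nm) read every 10 min for 72 h at 40° C, with 5 min shaking before each read; fibril formation = average emission.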

[2] = Turbidity of crude library peptides (absorbance at 600 nm); type: physicochemical; details: Physical stability of peptides
Method in brief: as §1

GLP1R = GLP1R (Homo sapiens, UniProt P43220); experiment: hGLP1R potency, cAMP accumulation in CHO-K1 cells stably overexpressing hGLP1R; type: cell-based; set-up: host or cells: CHO-K1; details: for EC50: cAMP accumulation, CHO-K1 cells overexpressing hGLP1R; for SCTR EC50/GLP1R EC50 ratio: selectivity for hGLP1R over hSCTR, cAMP accumulation in CHO-K1 cells; for Selectivity: SCTR EC50/GLP1R EC50 ratio
GLP1R, sequence (P43220 24-463): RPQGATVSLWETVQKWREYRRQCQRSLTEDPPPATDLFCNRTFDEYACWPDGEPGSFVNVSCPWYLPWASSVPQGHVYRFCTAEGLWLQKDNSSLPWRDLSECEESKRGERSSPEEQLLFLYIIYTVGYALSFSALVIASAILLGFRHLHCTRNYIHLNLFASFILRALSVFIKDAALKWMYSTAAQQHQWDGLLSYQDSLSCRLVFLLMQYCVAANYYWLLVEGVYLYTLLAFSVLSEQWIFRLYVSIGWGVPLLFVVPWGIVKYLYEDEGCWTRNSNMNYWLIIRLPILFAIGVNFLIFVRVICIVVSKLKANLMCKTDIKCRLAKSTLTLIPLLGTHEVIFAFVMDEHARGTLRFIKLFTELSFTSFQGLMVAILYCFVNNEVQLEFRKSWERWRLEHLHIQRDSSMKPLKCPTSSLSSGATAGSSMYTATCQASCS
Method in brief: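 CHO-K1 cells stably expressing hGLP1R (2000/well) in DPBS with 0.05% casein and 0.5 mM IBMX were stimulated 30 min at room temperature with graded compound doses; human GLP-1(7-36) served as positive control. cAMP was read by HTRF after 1 h; EC50 came from variable-slope sigmoid fits (purified peptides: 11-point 3-fold, n=2).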

SCTR = SCTR (Homo sapiens, UniProt P47872); experiment: hSCTR potency, cAMP accumulation in CHO-K1 cells stably overexpressing hSCTR; type: cell-based; set-up: alternatively Euroscreen ES-712-AF; FAST-0161L; host or cells: CHO-K1; details: cAMP accumulation, CHO-K1 cells overexpressing hSCTR
SCTR, sequence (P47872 23-440): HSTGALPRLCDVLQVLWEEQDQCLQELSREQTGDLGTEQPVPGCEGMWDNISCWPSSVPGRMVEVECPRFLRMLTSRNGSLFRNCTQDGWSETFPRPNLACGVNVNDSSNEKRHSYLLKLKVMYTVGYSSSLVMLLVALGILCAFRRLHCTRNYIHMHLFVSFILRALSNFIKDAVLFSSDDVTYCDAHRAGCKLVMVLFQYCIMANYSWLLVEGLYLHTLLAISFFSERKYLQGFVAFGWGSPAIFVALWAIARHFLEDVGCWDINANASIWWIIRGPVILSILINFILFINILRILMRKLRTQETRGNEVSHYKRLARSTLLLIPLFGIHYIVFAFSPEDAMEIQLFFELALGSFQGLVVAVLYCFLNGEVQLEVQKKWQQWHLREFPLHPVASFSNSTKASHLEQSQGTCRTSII
Method in brief: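 Cells plated at 2000/well in DPBS with 0.05% casein and 0.5 mM IBMX, stimulated 30 min at room temperature with graded compound doses; human secretin as positive control. cAMP read by TR-FRET after 1 h. Purified peptides tested at 11 3-fold dilutions, n=2; EC50 by variable-slope sigmoid fit.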

[3] = read-out: hGLP1R pEC50 (converted)
[4] = read-out: hSCTR pEC50 (converted)
[5] = read-out: pEC50 hGLPR1 (converted)
[6] = read-out: pEC50 hSCTR (converted)

CC[C@H](C)[C@H](NC(=O)[C@H](Cc1ccccc1)NC(=O)[C@H](CCCNC(=N)N)NC(=O)[C@H](CCC(N)=O)NC(=O)[C@H](CC(C)C)NC(=O)[C@H](C)NC(=O)[C@H](C)NC(=O)CNC(=O)[C@H](CCC(=O)O)NC(=O)[C@H](CC(C)C)NC(=O)[C@H](CC(C)C)NC(=O)[C@H](Cc1ccccc1)NC(=O)[C@H](CO)NC(=O)C(C)(C)NC(=O)[C@H](CC(=O)O)NC(=O)[C@H](CO)NC(=O)[C@@H](NC(=O)[C@H](Cc1ccccc1)NC(=O)[C@@H](NC(=O)CNC(=O)[C@H](CCC(=O)O)NC(=O)C(C)(C)NC(=O)[C@@H](N)Cc1c[nH]cn1)[C@@H](C)O)[C@@H](C)O)C(=O)N[C@@H](CCC(N)=O)C(=O)N[C@@H](Cc1c[nH]c2ccccc12)C(=O)N[C@@H](CC(C)C)C(=O)N[C@H](C(N)=O)C(C)C [compound 111] (H-H[Aib]EGTFTSD[Aib]SFLLEGAALQRFIQWLV-NH2)
Fibril formation [1]: 26712
Turbidity (pH 7) [2]: 0.24
EC50 (GLP1R; [3]): 0.0316 nM
SCTR EC50/GLP1R EC50 ratio (GLP1R): 70974
EC50 (SCTR; [4]): 2000 nM

CC[C@H](C)[C@H](NC(=O)[C@H](Cc1ccccc1)NC(=O)[C@H](CCCNC(=N)N)NC(=O)[C@H](CCC(N)=O)NC(=O)[C@H](CC(C)C)NC(=O)[C@H](C)NC(=O)[C@H](C)NC(=O)CNC(=O)[C@H](CCC(=O)O)NC(=O)[C@H](CC(C)C)NC(=O)[C@H](CC(C)C)NC(=O)[C@H](Cc1ccc(O)cc1)NC(=O)[C@H](CO)NC(=O)[C@@H](NC(=O)[C@H](CC(=O)O)NC(=O)[C@H](CO)NC(=O)[C@@H](NC(=O)[C@H](Cc1ccccc1)NC(=O)[C@@H](NC(=O)CNC(=O)[C@H](CCC(=O)O)NC(=O)C(C)(C)NC(=O)[C@@H](N)Cc1c[nH]cn1)[C@@H](C)O)[C@@H](C)O)C(C)C)C(=O)N[C@@H](CCC(N)=O)C(=O)N[C@@H](Cc1c[nH]c2ccccc12)C(=O)N[C@@H](CC(C)C)C(=O)N[C@H](C(N)=O)C(C)C [compound 181] (H-H[Aib]EGTFTSDVSYLLEGAALQRFIQWLV-NH2)
Fibril formation [1]: 257400
Turbidity (pH 7) [2]: 0.69
EC50 (GLP1R; [3]): 0.0501 nM
SCTR EC50/GLP1R EC50 ratio (GLP1R): 4280
EC50 (SCTR; [4]): 200 nM

CC(C)C[C@H](NC(=O)[C@H](Cc1ccccc1)NC(=O)[C@H](CCCNC(=N)N)NC(=O)[C@H](CCC(N)=O)NC(=O)[C@H](CCC(N)=O)NC(=O)[C@H](C)NC(=O)[C@H](C)NC(=O)[C@@H](NC(=O)[C@H](CCC(=O)O)NC(=O)[C@H](CCCCNC(=O)COCCOCCNC(=O)COCCOCCNC(=O)CC[C@H](NC(=O)CCCCCCCCCCCCCCCCCCC(=O)O)C(=O)O)NC(=O)[C@H](CC(C)C)NC(=O)[C@@H](NC(=O)[C@H](CO)NC(=O)[C@@H](NC(=O)[C@H](CC(=O)O)NC(=O)[C@H](CO)NC(=O)[C@@H](NC(=O)[C@H](Cc1ccccc1)NC(=O)[C@@H](NC(=O)CNC(=O)[C@H](CCC(=O)O)NC(=O)C(C)(C)NC(=O)[C@@H](N)Cc1c[nH]cn1)[C@@H](C)O)[C@@H](C)O)C(C)C)C(C)C)[C@@H](C)O)C(=O)N[C@@H](CCC(=O)O)C(=O)N[C@@H](Cc1c[nH]cn1)C(=O)N[C@@H](CC(C)C)C(=O)N[C@H](C(N)=O)C(C)C [compound 41] (H-H[Aib]EGTFTSDVSVLK([AEEA-AEEA-γGlu-C20 diacid])ETAAQQRFLEHLV-NH2)
Fibril formation [1]: 109124
Turbidity (pH 7) [2]: 0.08
Selectivity (GLP1R): 16199
EC50 (GLP1R; [5]): 0.00794 nM
EC50 (SCTR; [6]): 126 nM

CC[C@H](C)[C@H](NC(=O)[C@H](Cc1ccccc1)NC(=O)[C@H](CCCNC(=N)N)NC(=O)[C@H](CCC(N)=O)NC(=O)[C@H](CC(C)C)NC(=O)[C@H](C)NC(=O)[C@H](C)NC(=O)CNC(=O)[C@H](CCC(=O)O)NC(=O)[C@H](CC(C)C)NC(=O)[C@H](CC(C)C)NC(=O)[C@H](CCC(=O)O)NC(=O)[C@H](CO)NC(=O)[C@@H]1CCCN1C(=O)[C@H](CC(=O)O)NC(=O)[C@H](CO)NC(=O)[C@@H](NC(=O)[C@H](Cc1ccccc1)NC(=O)[C@@H](NC(=O)CNC(=O)[C@H](CCC(=O)O)NC(=O)C(C)(C)NC(=O)[C@@H](N)Cc1c[nH]cn1)[C@@H](C)O)[C@@H](C)O)C(=O)N[C@@H](CCC(N)=O)C(=O)N[C@@H](Cc1c[nH]c2ccccc12)C(=O)N[C@@H](CC(C)C)C(=O)N[C@H](C(N)=O)C(C)C [compound 122] (H-H[Aib]EGTFTSDPSELLEGAALQRFIQWLV-NH2)
Fibril formation [1]: 3560
Turbidity (pH 7) [2]: 0.08
EC50 (GLP1R; [3]): 6.31 nM
SCTR EC50/GLP1R EC50 ratio (GLP1R): 804
EC50 (SCTR; [4]): 5010 nM

CC[C@H](C)[C@H](NC(=O)[C@H](Cc1ccccc1)NC(=O)[C@H](CCCNC(=N)N)NC(=O)[C@H](CCC(N)=O)NC(=O)[C@H](CC(C)C)NC(=O)[C@H](C)NC(=O)[C@H](C)NC(=O)CNC(=O)[C@H](CCC(=O)O)NC(=O)[C@H](CC(C)C)NC(=O)[C@H](CC(C)C)NC(=O)[C@H](Cc1ccc(O)cc1)NC(=O)[C@H](CO)NC(=O)C(C)(C)NC(=O)[C@H](CC(=O)O)NC(=O)[C@H](CO)NC(=O)[C@@H](NC(=O)[C@H](Cc1ccccc1)NC(=O)[C@@H](NC(=O)CNC(=O)[C@H](CCC(=O)O)NC(=O)C(C)(C)NC(=O)[C@@H](N)Cc1c[nH]cn1)[C@@H](C)O)[C@@H](C)O)C(=O)N[C@@H](CCC(N)=O)C(=O)N[C@@H](Cc1c[nH]c2ccccc12)C(=O)N[C@@H](CC(C)C)C(=O)N[C@H](C(N)=O)C(C)C [compound 106] (H-H[Aib]EGTFTSD[Aib]SYLLEGAALQRFIQWLV-NH2)
Fibril formation [1]: 11918
Turbidity (pH 7) [2]: 0.74
EC50 (GLP1R; [3]): 0.0158 nM
SCTR EC50/GLP1R EC50 ratio (GLP1R): 100392
EC50 (SCTR; [4]): 1580 nM

CC(C)C[C@H](NC(=O)[C@H](Cc1ccccc1)NC(=O)[C@H](CCCNC(=N)N)NC(=O)[C@H](CCC(N)=O)NC(=O)[C@H](CC(C)C)NC(=O)C(C)(C)NC(=O)[C@H](C)NC(=O)[C@H](CCC(=O)O)NC(=O)[C@H](CCC(=O)O)NC(=O)[C@H](CCCCNC(=O)COCCOCCNC(=O)COCCOCCNC(=O)CC[C@H](NC(=O)CCCCCCCCCCCCCCCCCCC(=O)O)C(=O)O)NC(=O)[C@H](CC(C)C)NC(=O)[C@H](Cc1ccc(O)cc1)NC(=O)[C@H](CO)NC(=O)[C@@H](NC(=O)[C@H](CC(=O)O)NC(=O)[C@H](CO)NC(=O)[C@@H](NC(=O)[C@H](Cc1ccccc1)NC(=O)[C@@H](NC(=O)CNC(=O)[C@H](CC(C)C)NC(=O)C(C)(C)NC(=O)[C@@H](N)Cc1c[nH]cn1)[C@@H](C)O)[C@@H](C)O)C(C)C)C(=O)N[C@@H](CCC(=O)O)C(=O)N[C@@H](Cc1c[nH]cn1)C(=O)N[C@@H](CC(C)C)C(=O)N[C@H](C(N)=O)C(C)C [compound 170] (H-H[Aib]LGTFTSDVSYLK([AEEA-AEEA-γGlu-C20 diacid])EEA[Aib]LQRFLEHLV-NH2)
Fibril formation [1]: 3337
Turbidity (pH 7) [2]: 0.08
EC50 (GLP1R; [3]): 0.0251 nM
SCTR EC50/GLP1R EC50 ratio (GLP1R): 873474
EC50 (SCTR; [4]): 25100 nM

CC(C)C[C@H](NC(=O)[C@H](CCC(=O)O)NC(=O)[C@H](CCCCNC(=O)COCCOCCNC(=O)COCCOCCNC(=O)CC[C@H](NC(=O)CCCCCCCCCCCCCCCCCCC(=O)O)C(=O)O)NC(=O)[C@H](CC(C)C)NC(=O)[C@H](CCC(=O)O)NC(=O)[C@H](CO)NC(=O)[C@@H](NC(=O)[C@H](CC(=O)O)NC(=O)[C@H](CO)NC(=O)[C@@H](NC(=O)[C@H](Cc1ccccc1)NC(=O)[C@@H](NC(=O)CNC(=O)[C@H](CCC(=O)O)NC(=O)C(C)(C)NC(=O)[C@@H](N)Cc1c[nH]cn1)[C@@H](C)O)[C@@H](C)O)C(C)C)C(=O)N[C@@H](C)C(=O)N[C@@H](C)C(=O)N[C@H](C(=O)N[C@@H](CCC(N)=O)C(=O)N[C@@H](CCCNC(=N)N)C(=O)N[C@@H](Cc1ccccc1)C(=O)N[C@@H](CC(C)C)C(=O)N[C@@H](CCC(=O)O)C(=O)N[C@@H](Cc1c[nH]cn1)C(=O)N[C@@H](CC(C)C)C(=O)N[C@H](C(N)=O)C(C)C)[C@@H](C)O [compound 80] (H-H[Aib]EGTFTSDVSELK([AEEA-AEEA-γGlu-C20 diacid])ELAATQRFLEHLV-NH2)
Fibril formation [1]: 6999
Turbidity (pH 7) [2]: 0.08
Selectivity (GLP1R): 33512
EC50 (GLP1R; [5]): 0.02 nM
EC50 (SCTR; [6]): 794 nM
